# Measurements as given in article PMC7228089, “Odiparcil, a potential glycosaminoglycans clearance therapy in mucopolysaccharidosis VI—Evidence from in vitro and in vivo models” (PLoS ONE, 2020).
# Experiments:
# Arsb^- mice = test: Sulphated GAG accumulation in liver and kidney (Alcian Blue staining, Blyscan); type: in vivo; conditions: for Liver sulphated GAG accumulation / Kidney sulphated GAG accumulation: Arsb^- mice; for Liver sulphated GAG accumulation: 6 months of treatment; for Kidney sulphated GAG accumulation: Alcian Blue
# Method: MPS VI model nonsense mutation Arsb^m1J homozygous mice (referred to as Arsb^- throughout the manuscript) and WT littermates were obtained from internal breeding of stock mice derived from The Jackson Laboratory strain No: 005598 (C57BL/6J-Arsb^m1J/GrsrJ). Genotyping and Arsb^m1J mutation identification were performed according to the protocol provided by The Jackson Laboratory. Each study group contained mix of male and female: 6 animals in disease progression studies and between 8 and 12 animals in odiparcil treatment studies.
# Housing conditions. The animals were housed in groups of 3–10 (for mice) or 2 (for rats) in polypropylene cages (floor area = 1032 cm^2) under standard conditions: room temperature (22 ± 2°C), hygrometry (55 ± 10%), light/dark cycle (12h/12h), air replacement (15–20 volumes/hour), water and food ad libitum. Mice were allowed to habituate for at least 5 days prior to experimentation. Mice were numbered by marking their tail using indelible markers. For the early disease model (treatment starting in juvenile, 4 weeks old mice), odiparcil administration in the weeks 1 to 6 was done per gavage with odiparcil in Methylcellulose 400 cps 1% / Poloxamer 188 0.1% / Water, freshly prepared every week. Later on, administration was per chow diet with odiparcil mixed before diet granulation. For advanced disease treatment (treatment starting in adult, 3 months old mice), administration was per diet from the beginning of the study. WT and Arsb^- animals were randomized into groups: control and two doses of odiparcil: 1.5 g odiparcil per kg of diet and 4.5 g odiparcil per kg of diet. For urine collection, animals were placed for 24 hours in standard metabolism cages (2 or 3 animals per cage). At the end of the studies, animals were anesthetized (O2 / isoflurane), blood for smears was collected from ocular sinus and after euthanasia samples from liver and kidney (snap frozen for total GAG analysis by Blyscan method or fixed for histology, see below) and from trachea and knee from the left hind leg were collected.
# Total sulphated GAG in cell culture media were determined colorimetrically by DMMB method (described in [31] adapted for cell culture media). Total sulphated GAG in snap frozen liver and kidney samples and urine were measured using Blyscan assay from Biocolor Company (UK) following manufacturer’s instructions. Urine samples were processed directly according to the kit manual. For GAG in tissues quantification, individual pieces (approximately 50 mg) were removed from the frozen samples (liver and kidney), weighed and digested in 1 mL papain solution prepared according to the Blyscan kit protocol. After the extraction, 20 μL from each reaction were used for sulphated GAG determination following the Blyscan kit protocol. The obtained values for sulphated GAG were adjusted to the volume of papain reaction and were normalized to the weight of the tissue used or, in the case of urine samples, to creatinine levels.
# GAG tissue accumulation in liver and kidney sections was estimated based on Alcian Blue staining performed at low pH (pH 1), at which the dye stained predominantly sulphated GAG. Two slides at different levels per tissue block were used. Staining with 1% Alcian Blue in hydrochloric acid was performed on automated Leica Autostainer. […] Then for each proof image, an RGB index was calculated that was the mean of Red + Green + Blue intensities of all non-black pixels. […]
# [1] = system: Primary skin fibroblasts from MPS VI patients GM00538 and GM02572; test: Intracellular chondroitin sulphate ([CS-56] immunofluorescence) in MPS VI patient skin fibroblasts; type: cell-based, human; conditions: 72 h
# Method: Primary skin fibroblasts from MPS VI patients GM00538 and GM02572 were obtained from the NIGMS Human Genetic Cell Repository at the Coriell Institute for Medical Research. Cell culturing was done according to the conditions provided by the Coriell Institute. For evaluation of the effect of odiparcil, cells were seeded in 96 well imaging plates (Falcon Cat N 353219) and two types of treatment were evaluated: i) prophylactic conditions—cells were treated with odiparcil before reaching confluence, 24 hours after plating; and ii) curative conditions—cells were treated with odiparcil after reaching confluence (10 days culturing). Cells were treated by odiparcil added to the culture media. This was done by replacing the initial culture media by media containing 0.1% DMSO with or without odiparcil (at 0.01, 0.03, 0.1, 0.3, 1, 3 and 10 μM). For treatment, the cells were incubated for 72 hours at 37°C, 5% CO2. All experimental conditions were performed in triplicate, i.e., 3 wells/test condition.
# After odiparcil treatment as described above, culture media were removed to be used for dimethylmethylene blue (DMMB) assay and the cells were fixed in PFA 4%. […]
# For statistical analyses, commercial software (GraphPad Prism 5) was used. EC50 were calculated using the build in function Nonlinear fit for “log (inhibitor) vs. response—Variable slope (four parameters)”. […]
smiles,measurement,setting,value
"Cc1cc(=O)oc2cc(O[C@@H]3SC[C@@H](O)[C@H](O)[C@H]3O)ccc12 [Odiparcil, 4-methyl-7-(5-thio-β-D-xylopyranosyloxy)-2 H-chromen-2-one]",Liver sulphated GAG accumulation,"Arsb^- mice; early disease model, 1.5 and 4.5 g/kg diet",significantly reduced liver GAG at both doses
same,Kidney sulphated GAG accumulation,"Arsb^- mice; early disease model, 6 months, effect not significant",reduced kidney GAG
same,Liver sulphated GAG accumulation,"Arsb^- mice; established disease model, highest dose (4.5 g/kg diet)",significantly reduced liver GAG
same,Kidney sulphated GAG accumulation,"Arsb^- mice; established disease model, 6 months",significant only in the latter model
same,Liver and kidney GAG levels in wild type animals,"Arsb^- mice; wild type mice, two doses of odiparcil, 6 months",no significant effects on GAG levels
same,Effect on intracellular pool of CS,[1]; 10 μM odiparcil,almost completely eliminated intracellular pool of CS
same,EC50,"[1]; Homo sapiens, Skin fibroblast, growing and confluent cell culture conditions, read-out: EC50 for the reduction of intracellular CS levels",~1000 nM
